One test has as its target human Bub1 (Homo sapiens (Human), UniProt O43683). The test can be described thus: Bub1 kinase assay (TR-FRET). The class given is biochemical. The settings on record: 10 μM ATP; read-out: Bub1 avg (IC50 [mol/l]). The method, boiled down: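 His6-tagged human Bub1 catalytic domain (aa 704-1085, insect-cell expressed, ~200 ng/ml) preincubated with compound 15 min, then reacted 60 min at 22 °C with 10 μM ATP and 1 μM biotinylated peptide (final) in pH 7.5 Tris buffer. Phosphopeptide detected by TR-FRET 665/620 ratio, normalised to no-inhibitor and no-enzyme controls.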

The test system of test [1] is spindle assembly checkpoint. Nature of the test: SAC-Formation - Paclitaxel-Induced Assay. Format: cell-based. The settings on record: Homo sapiens; HeLa cells, paclitaxel 0.05 μM, 24 h, phosphorylated histone H3 on serine 10. The method, boiled down: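 HeLa cells were plated overnight, then given paclitaxel (0.05 μM final) plus compound (0.005-20 μM, 0.5% DMSO) for 24 h at 37° C. Fixed cells were stained for phospho-histone H3 Ser10 and with Hoechst, then imaged to give mitotic index. A fall in mitotic cells marks SAC breakthrough, and values were fit with a four-parameter Hill equation.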

Bounds are passed on as bounds.

Sequence of human Bub1 (O43683 704-1085): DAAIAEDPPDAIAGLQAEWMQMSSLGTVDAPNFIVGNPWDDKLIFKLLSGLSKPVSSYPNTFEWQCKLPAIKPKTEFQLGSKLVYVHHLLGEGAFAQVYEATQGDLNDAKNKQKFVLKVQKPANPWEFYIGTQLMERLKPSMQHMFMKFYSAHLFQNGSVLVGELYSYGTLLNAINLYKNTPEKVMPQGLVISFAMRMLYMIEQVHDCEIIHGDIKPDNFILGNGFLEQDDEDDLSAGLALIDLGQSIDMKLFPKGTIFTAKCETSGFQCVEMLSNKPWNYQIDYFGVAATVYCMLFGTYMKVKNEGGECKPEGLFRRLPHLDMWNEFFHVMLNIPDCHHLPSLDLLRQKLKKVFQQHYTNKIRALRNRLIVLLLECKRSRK

On to `COc1ncc(NC(=O)c2c(C)nsc2Nc2cnc3ccccc3n2)cc1C` [Example 121, N-(6-Methoxy-5-methylpyridin-3-yl)-3-methyl-5-(quinoxalin-2-ylamino)-1,2-thiazole-4-carboxamide], for which the IC50 is above 20000 nM at human Bub1 and 750 nM in test [1].

For `CCOc1ccc(NC(=O)c2c(C)nsc2Nc2cnc3ccccc3n2)cn1` [Example 119, N-(6-Ethoxypyridin-3-yl)-3-methyl-5-(quinoxalin-2-ylamino)-1,2-thiazole-4-carboxamide], the IC50 on human Bub1 was above 20000 nM; in test [1], 2500 nM.

Consider `Cc1nsc(Nc2nc3c(C(F)(F)F)cccc3s2)c1C(=O)Nc1ccc(Cl)c(Cl)c1` [Example 102, N-(3,4-Dichlorophenyl)-3-methyl-5-{[4-(trifluoromethyl)-1,3-benzothiazol-2-yl]amino}-1,2-thiazole-4-carboxamide], for which the IC50 on human Bub1 was above 20000 nM; in test [1], 790 nM.

For the molecule `COC(=O)c1ccc(Nc2snc(C)c2C(=O)Nc2ccc(OC)nc2)nc1` [Example 31, Methyl 6-({4-[(6-methoxypyridin-3-yl)carbamoyl]-3-methyl-1,2-thiazol-5-yl}amino)-nicotinate], the IC50 (at human Bub1; in test [1]) was above 20000 nM in each case.

For `Cc1nsc(Nc2ccn3nccc3n2)c1C(=O)Nc1ccc(F)c(F)c1` [Example 57, N-(3,4-Difluorophenyl)-3-methyl-5-(pyrazolo[1,5-a]pyrimidin-5-ylamino)-1,2-thiazole-4-carboxamide], the IC50 on human Bub1 is above 20000 nM; in test [1], 390 nM.

As for `COc1ccc(NC(=O)c2c(C)nsc2Nc2nc3c(C(F)(F)F)cccc3s2)cc1F` [Example 47, N-(3-Fluoro-4-methoxyphenyl)-3-methyl-5-{[4-(trifluoromethyl)-1,3-benzothiazol-2-yl]amino}-1,2-thiazole-4-carboxamide], the IC50 is above 20000 nM on human Bub1 and 63 nM in test [1].

`CCc1ccccc1NC(=O)c1c(C)nsc1Nc1nccc(OC)n1` [Example 16, N-(2-Ethylphenyl)-5-[(4-methoxypyrimidin-2-yl)amino]-3-methyl-1,2-thiazole-4-carboxamide]: the IC50 (on human Bub1; in test [1]) was above 20000 nM in each case.

Consider `CCc1ccccc1NC(=O)c1c(C)nsc1Nc1nc2ccccc2o1` [Example 11, 5-(1,3-Benzoxazol-2-ylamino)-N-(2-ethylphenyl)-3-methyl-1,2-thiazole-4-carboxamide], for which the IC50 on human Bub1 came out at 3800 nM; in test [1], 2900 nM.

With `Cc1nsc(Nc2cnc3ccccc3n2)c1C(=O)Nc1ccc(OC(C)C)nc1` [Example 122, N-(6-Isopropoxypyridin-3-yl)-3-methyl-5-(quinoxalin-2-ylamino)-1,2-thiazole-4-carboxamide], the results for the IC50 (at human Bub1; in test [1]) were above 20000 nM and 880 nM, respectively.

Turning to `COc1ccc(NC(=O)c2c(C)nsc2Nc2cnc3cccc(C)c3n2)cn1` [Example 22, N-(6-methoxypyridin-3-yl)-3-methyl-5-[(8-methylquinoxalin-2-yl)amino]-1,2-thiazole-4-carboxamide], the IC50 at human Bub1 is above 20000 nM; in test [1], 260 nM.

Take `Cc1nsc(Nc2cc(C#N)ccn2)c1C(=O)Nc1ccc(Cl)c(F)c1` [Example 54, N-(4-Chloro-3-fluorophenyl)-5-[(4-cyanopyridin-2-yl)amino]-3-methyl-1,2-thiazole-4-carboxamide]: the IC50 was above 20000 nM at human Bub1 and 30 nM in test [1].

Consider `Cc1nsc(Nc2ccc(C#N)cn2)c1C(=O)Nc1ccc(Cl)c(F)c1` [Example 52, N-(4-Chloro-3-fluorophenyl)-5-[(5-cyanopyridin-2-yl)amino]-3-methyl-1,2-thiazole-4-carboxamide], for which the IC50 on human Bub1 was above 20000 nM; in test [1], 16 nM.

Turning to `Cc1nsc(Nc2cc(C#N)ccn2)c1C(=O)Nc1ccc(Oc2ccccc2)nc1` [Example 111, 5-[(4-Cyanopyridin-2-yl)amino]-3-methyl-N-(6-phenoxypyridin-3-yl)-1,2-thiazole-4-carboxamide], the values for the IC50 (on human Bub1; in test [1]) were above 20000 nM and 1800 nM, respectively.

Consider `CCc1ccccc1NC(=O)c1c(C)nsc1Nc1ccc(C#N)cn1` [Example 7, 5-[(5-Cyanopyridin-2-yl)amino]-N-(2-ethylphenyl)-3-methyl-1,2-thiazole-4-carboxamide], for which the IC50 on human Bub1 was above 20000 nM; in test [1] it was 2500 nM.

Regarding `CCc1ccccc1NC(=O)c1c(C)nsc1Nc1cc(-n2ccnc2)ncn1` [Example 9, N-(2-Ethylphenyl)-5-{[6-(1H-imidazol-1-yl)pyrimidin-4-yl]amino}-3-methyl-1,2-thiazole-4-carboxamide], the values for the IC50 (at human Bub1; in test [1]) were above 20000 nM and 3000 nM, respectively.

Regarding `Cc1nsc(Nc2nc3c(C(F)(F)F)cccc3s2)c1C(=O)Nc1ccc(Cl)c(F)c1` [Example 53, N-(4-Chloro-3-fluorophenyl)-3-methyl-5-{[4-(trifluoromethyl)-1,3-benzothiazol-2-yl]amino}-1,2-thiazole-4-carboxamide], the IC50 on human Bub1 was above 20000 nM; in test [1], 590 nM.
